Assay results reported in patent US9205137B2, “Maturation of gastrointestinal tract” (ANARA AB, priority 2010, dated 2015).
Marks after values point to notes of the source that are not given here.

Tests used:
suckling rats [1] = experiment: Set II: intestinal morphology of distal SI at different doses of protease, Example 4; type: in vivo, Rattus norvegicus; conditions: in words (FIG. 8)
Experimental: (§1) The second study was about comparing the effect of different doses of protease (15000 USP, 7500 USP, 3750 USP and […]) on the development of the GI tract with control. In this experiment 2 litters of pups were used (n=13 and n=12). Pups were divided into five groups to fed with different doses of protease; 15000 USP (n=3), P7500 USP (n=6), P 3750 USP (n=6), P 1875 USP (n=5) and water as a control (n=5). The feeding was during 3 continuous days, once a day. 24 hours after the last feeding, on day 17, similar dissection steps and analytical procedures as mentioned for the previous experiment were followed.
All samples collected for histology were fixed with Bouin's solution for 24 hours and then stored in 70% ethanol, dehydrated, embedded into the paraffin and then cut into sections with 5 μm thickness. The tissue sections were transferred onto the slides, rehydrated and stained with H&E according to the standard technique. After mounting under cover slips samples were examined using light microscopy to estimate ratio between total length of the villus and length of the adult type enterocytes using ImageJ program.

rat pups = experiment: Set III: health and growth monitored for 3 weeks after protease, early and normal weaning, Example 5; type: in vivo; conditions: protease 15 000 USP
Description: In the last study, the health and the growth of the pups were monitored for 3 weeks. Pups where treated at age 14 day of life with the protease 15 000 USP/rat/day for 3 days once a day (on days 14, 15, and 16). This study performed using 3 litters (n=9, n=11 and n=10) where pups were divided into 2 groups; enzyme treated and control. After last feeding rat were further divided into subgroups: early weaning started on day 17 (n=8) and normal weaning started on day 21 (n=6). All animals were monitored via weighing for one week on a daily basis and then once a week for the next 2 weeks.

suckling rats [2] = experiment: Set I: plasma concentration of marker molecules BSA and BIgG (macromolecule absorption), Example 3; type: in vivo, Rattus norvegicus; conditions: 3 hours after marker feeding, day 17, in words (FIG. 6)
Description: The plasma level of marker molecules was quantified by using immunoassay rocket electrophoresis and SRI (single radial immunodiffusion) for plasma BSA and BIgG respectively.

suckling rats [3] = experiment: Set I: body weight, GI and lymphoid organ weights, stomach pH after individual enzymes or mixture, Example 3
Experimental: All experiments were performed in young suckling rats by feeding them from 14 days of age via stomach tube for 3 continuous days (ones a day). One day after last treatment rats were euthanized and plasma and organs proceeded to study structural and functional changes of gastrointestinal system.
The pups were kept with their dam until dissection day (day 17).
In this set suckling pups were divided into five groups; control (water) amylase 10 000 USP/rat/day, lipase 4 000 USP/rat/day, protease 15 000 USP/rat/day, and mixture of these enzyme with corresponding activities per rat and day. This study was evaluating the effects of different pancreatic-like enzymes on the gut maturation and functioning and had 3 individual litters; n=12, n=10 and n=13, totally n=7 pups per each group. Each of the enzymes (Amylase, Protease and Lipase) (Sigma Aldrich) was available in the powder form and was resolved in distilled water prior to stomach feeding during days 14, 15 and 16. The volume of administered enzymes and distilled water (for control groups) was 0.01 ml/g BW. Each time, prior to the feeding procedure, the pups were weighed. […] Then 3 hours later, the pups were sedated with CO2 and anaesthetized by subcutaneous injection with a mixture of ketamine (Ketalar®, Pfizer, New York, USA, NaCl and azaperone (Stresnil®, Janssen Pharmaceutica, Beerse, Belgium), 0.01 ml/g BW. After opening the abdomen of the rats, 1 ml of blood was collected from heart by using syringes containing protease inhibitor and EDTA (50 μl) as anticoagulant and was transferred into ice-chilled tubes. After this, the pancreas was immediately dissected and rinsed with cold 0.9% NaCl, weighted and stored at −70 C. The SI was removed and its length was measured then divided into two halves, proximal and distal. Each segment was flushed out with cold 0.9% NaCl to clean the lumen and was then weighed separately. […] The stomach was removed and its content was collected into the tube (for measuring its pH) and frozen. Then cecum was dissected out, opened, rinse and weighed as well as liver and lymphoid organs spleen and thymus were dissected and weighted.
The contents of the stomach were de-frozen and then resolved with 1 ml of cold 0.9% NaCl. After resolving, they were centrifuged and the pH was measured in the supernatant using pH-meter.
All data are presented as mean±standard deviation (SD). Statistical comparisons between each group and control group were performed using the t-test. Results were considered as significant when P<0.05.

suckling 14 d old rats = experiment: Exocrine pancreatic function (trypsin activity in pancreatic homogenates), Example 6; type: in vivo, rat; conditions: 3 d oral gavage, in words (FIG. 10)
Description: Treated groups were compared to control, *p<0.05.
The same rat model as in Experiments 3-5 was used.
The effect of microbial-derived enzymes with pancreatic activity: protease, lipase, amylase and their mixture on exocrine pancreatic secretion after 3 d of oral gavage to suckling 14 d old rats (see experiment 3-5 above). Treated groups were compared to control, *p<0.05

suckling rats [4] = experiment: Set II: different doses of protease, organ weights, stomach pH and body weight, Example 4; type: in vivo, Rattus norvegicus; set-up: mean body weight Bwt 1/Day 14 / mean body weight Bwt2/Day 15 / mean body weight Bwt3/Day 16 / mean body weight Bwt4/Day 17: unit not given here; conditions: for Cecum / Distal SI / Liver / Pancreas / Proximal SI / SI length / Spleen / Stomach / Thymus: day 17; for pH: stomach contents
Experimental: as §1
All data are presented as mean±standard deviation (SD). […] Results were considered as significant when P<0.05.

suckling rats [5] = experiment: Papain vs microbial protease: intestinal disaccharidase activity in proximal SI, Example 8; type: in vivo, Rattus norvegicus; conditions: proximal part of SI, in words (FIG. 13)
Description: The litter size for each dam was limited to 12 or 13 pups, to reduce variability.
Suckling pups were divided into 3 groups depending on the treatments; microbial protease as a positive control, water as negative control and enzyme from papaya fruit (papain) (in total; protease=7, papain=8, control=7). The enzymes are available in the market in form of powders and were resolved in distilled water prior to stomach feeding during 14-16 d of age. The administered dose for each enzyme was 10000 USP/animal. The volume of administered enzymes and water (for control groups) was 0.01 ml/g b.wt. Prior to the feeding procedure, the pups were weighed. […] Three hours later, the pups were anaesthetized and organs were dissected out for analyses.
The activities of the brush-border enzymes lactase, maltase and sucrase were analyzed in the proximal part of the SI in groups treated with papain and protease.

Proteinase from Aspergillus melleus [Protease]
vacuolated (fetal-type) enterocytes in distal SI (suckling rats [1]; protease 1875 USP): limited to the middle and the tip of the villi
vacuolated (fetal-type) enterocytes in distal SI (suckling rats [1]; protease 3750 USP): limited to the middle and the tip of the villi
vacuolated (fetal-type) enterocytes in distal SI (suckling rats [1]; protease 7500 USP): limited to the middle and the tip of the villi
vacuolated (fetal-type) enterocytes in distal SI (suckling rats [1]; protease 15000 USP): all of the vacuolated enterocytes disappeared
diarrhea (rat pups; after first treatment): signs of diarrhea
growth in comparison to control group (rat pups; in words (FIG. 9)): decrease in growth after first treatment
effect of early weaning on treated group (rat pups; weaning day 17, in words): no disadvantage
uptake of marker molecule BIgG to plasma (suckling rats [2]): significantly lower
uptake of marker molecule BSA to plasma (suckling rats [2]): significantly lower
Body weight (suckling rats [3]; 3 days treatment, day 17): 33.6 ± 1.9 gr
Cecum (suckling rats [3]; 3 days treatment, day 17): 4.0 ± 0.5 mg/g BW
Distal SI (suckling rats [3]; 3 days treatment, day 17): 17.8 ± 2.5 mg/g BW
Liver (suckling rats [3]; 3 days treatment, day 17): 35.8 ± 2.5 mg/g BW
Pancreas (suckling rats [3]; 3 days treatment, day 17): 4.3 ± 0.4 mg/g BW
Proximal SI (suckling rats [3]; 3 days treatment, day 17): 24.7 ± 3.5 mg/g BW
SI length (suckling rats [3]; 3 days treatment, day 17): 1.7 ± 0.1 cm/g BW
Spleen (suckling rats [3]; 3 days treatment, day 17): 3.4 ± 0.5 mg/g BW
Stomach (suckling rats [3]; 3 days treatment, day 17): 7.2 ± 0.7 mg/g BW
Thymus (suckling rats [3]; 3 days treatment, day 17): 3.96 ± 0.4 mg/g BW
diarrhoea (suckling rats [3]; after receiving the first dose): diarrhoea observed after receiving the first dose
pH (suckling rats [3]; stomach contents, day 17): 3.5 ± 0.3
stimulation of the pancreatic function (suckling 14 d old rats): most efficient enzyme for stimulation of the pancreatic function
diarrhoea (suckling rats [4]; highest dose of protease, after first dose on day 14): signs of diarrhoea
mean body weight Bwt 1/Day 14 (suckling rats [4]; protease 15 000USP): 28.7
mean body weight Bwt2/Day 15 (suckling rats [4]; protease 15 000USP): 27.4*
mean body weight Bwt3/Day 16 (suckling rats [4]; protease 15 000USP): 28.2*
mean body weight Bwt4/Day 17 (suckling rats [4]; protease 15 000USP): 30.1*
mean body weight Bwt 1/Day 14 (suckling rats [4]; protease 1875USP): 28.2
mean body weight Bwt2/Day 15 (suckling rats [4]; protease 1875USP): 31.7
mean body weight Bwt3/Day 16 (suckling rats [4]; protease 1875USP): 32.9
mean body weight Bwt4/Day 17 (suckling rats [4]; protease 1875USP): 34.8
Cecum (suckling rats [4]; protease 1875 USP): 2.3 ± 0.2 mg/g BW
Distal SI (suckling rats [4]; protease 1875 USP): 13.3 ± 1.4 mg/g BW
Liver (suckling rats [4]; protease 1875 USP): 31.7 ± 1.1 mg/g BW
Pancreas (suckling rats [4]; protease 1875 USP): 3.0 ± 0.4 mg/g BW
Proximal SI (suckling rats [4]; protease 1875 USP): 16.4 ± 0.8 mg/g BW
SI length (suckling rats [4]; protease 1875 USP): 1.5 ± 0.0 cm/g BW
Spleen (suckling rats [4]; protease 1875 USP): 3.3 ± 0.4 mg/g BW
Stomach (suckling rats [4]; protease 1875 USP): 6.1 ± 0.3 mg/g BW
Thymus (suckling rats [4]; protease 1875 USP): 5.6 ± 0.3 mg/g BW
mean body weight Bwt 1/Day 14 (suckling rats [4]; protease 3750USP): 28.5
mean body weight Bwt2/Day 15 (suckling rats [4]; protease 3750USP): 30.5
mean body weight Bwt3/Day 16 (suckling rats [4]; protease 3750USP): 32.3
mean body weight Bwt4/Day 17 (suckling rats [4]; protease 3750USP): 33.3
Cecum (suckling rats [4]; protease 3750 USP): 2.8 ± 0.3 mg/g BW
Distal SI (suckling rats [4]; protease 3750 USP): 14.7 ± 1.1 mg/g BW
Liver (suckling rats [4]; protease 3750 USP): 32.8 ± 1.7 mg/g BW
Pancreas (suckling rats [4]; protease 3750 USP): 3.2 ± 0.3 mg/g BW
Proximal SI (suckling rats [4]; protease 3750 USP): 17.6 ± 1.5 mg/g BW
SI length (suckling rats [4]; protease 3750 USP): 1.5 ± 0.1 cm/g BW
Spleen (suckling rats [4]; protease 3750 USP): 3.3 ± 0.5 mg/g BW
Stomach (suckling rats [4]; protease 3750 USP): 6.4 ± 0.3 mg/g BW
Thymus (suckling rats [4]; protease 3750 USP): 5.6 ± 0.8 mg/g BW
mean body weight Bwt 1/Day 14 (suckling rats [4]; protease 7500USP): 28.9
mean body weight Bwt2/Day 15 (suckling rats [4]; protease 7500USP): 30.6
mean body weight Bwt3/Day 16 (suckling rats [4]; protease 7500USP): 32.2
mean body weight Bwt4/Day 17 (suckling rats [4]; protease 7500USP): 33.6
Cecum (suckling rats [4]; protease 7500 USP): 3.0 ± 0.2 mg/g BW
Distal SI (suckling rats [4]; protease 7500 USP): 15.4 ± 1.7 mg/g BW
Liver (suckling rats [4]; protease 7500 USP): 33.0 ± 1.6 mg/g BW
Pancreas (suckling rats [4]; protease 7500 USP): 3.4 ± 0.4 mg/g BW
Proximal SI (suckling rats [4]; protease 7500 USP): 19.3 ± 2.0 mg/g BW
SI length (suckling rats [4]; protease 7500 USP): 1.8 ± 0.1 cm/g BW
Spleen (suckling rats [4]; protease 7500 USP): 3.1 ± 0.1 mg/g BW
Stomach (suckling rats [4]; protease 7500 USP): 6.3 ± 0.4 mg/g BW
Thymus (suckling rats [4]; protease 7500 USP): 4.8 ± 0.6 mg/g BW
Cecum (suckling rats [4]; protease 15000 USP): 4.2 ± 0.1 mg/g BW
Distal SI (suckling rats [4]; protease 15000 USP): 18.6 ± 1.0 mg/g BW
Liver (suckling rats [4]; protease 15000 USP): 38.5 ± 2.4 mg/g BW
Pancreas (suckling rats [4]; protease 15000 USP): 4.8 ± 0.2 mg/g BW
Proximal SI (suckling rats [4]; protease 15000 USP): 28.2 ± 1.7 mg/g BW
SI length (suckling rats [4]; protease 15000 USP): 1.8 ± 0.1 cm/g BW
Spleen (suckling rats [4]; protease 15000 USP): 3.0 ± 0.3 mg/g BW
Stomach (suckling rats [4]; protease 15000 USP): 6.9 ± 0.7 mg/g BW
Thymus (suckling rats [4]; protease 15000 USP): 3.0 ± 0.2 mg/g BW
pH (suckling rats [4]; protease 1875 USP): 4.1 ± 0.2
pH (suckling rats [4]; protease 3750 USP): 4.1 ± 0.4
pH (suckling rats [4]; protease 7500 USP): 3.9 ± 0.7
pH (suckling rats [4]; protease 15000 USP): 3.4 ± 0.8
activity of maltase compared to control (suckling rats [5]): significantly increased
activity of sucrase compared to control (suckling rats [5]): significantly increased
